Test results taken from ChEMBL document CHEMBL4346688, “Discovery of novel mutant-combating ALK and ROS1 dual inhibitors bearing imidazolidin-2-one moiety with reasonable PK properties” (Eur J Med Chem, 2019).

Key:
Assay in all cases: cells
A549 [1] = settings: Homo sapiens, A549, 72 h
KARPAS-299 = settings: Homo sapiens, KARPAS-299, 72 h
Description: Cytotoxicity against human KARPAS299 cells incubated for 72 hrs by MTT assay

BaF3 [2] = settings: Mus musculus, BaF3, 72 h
Description: Cytotoxicity against mouse BA/F3 cells incubated for 72 hrs by MTT assay

A549 [3] = settings: Homo sapiens, A549, 72 h; remark: listed apart in the source
Description: Cytotoxicity against human A549 cells incubated for 72 hrs by MTT assay

NCI-H2228 = settings: Homo sapiens, NCI-H2228, 72 h
Description: Cytotoxicity against human NCI-H2228 cells incubated for 72 hrs by MTT assay

BaF3 [4] = settings: Mus musculus, BaF3, 72 h; remark: listed apart in the source
HCC78 = settings: Homo sapiens, HCC78, 72 h
Description: Cytotoxicity against human HCC78 cells incubated for 72 hrs by MTT assay

IC50 (A549 [1])	IC50 (KARPAS-299)	IC50 (BaF3 [2])	IC50 (A549 [3])	IC50 (NCI-H2228)	IC50 (BaF3 [4])	IC50 (HCC78)	SMILES
2820 nM	170 nM	> 5000 nM	> 5000 nM	320 nM	> 5000 nM	570 nM	COc1cc(N2CCN(C[C@@H]3CO3)C2=O)ccc1Nc1ncc(Cl)c(Nc2ccccc2S(=O)(=O)C(C)C)n1
1270 nM	370 nM	> 5000 nM	> 5000 nM	270 nM	1960 nM	530 nM	COc1cc(N2CCN(CC(=O)N3CCSCC3)C2=O)ccc1Nc1ncc(Cl)c(Nc2ccccc2S(=O)(=O)C(C)C)n1
1160 nM	140 nM	> 5000 nM	2450 nM	170 nM	1190 nM	56 nM	COc1cc(N2CCN(CC(=O)N3CCC[C@H]3CO)C2=O)ccc1Nc1ncc(Cl)c(Nc2ccccc2S(=O)(=O)C(C)C)n1
1740 nM	270 nM	> 5000 nM	> 5000 nM	910 nM	> 5000 nM	510 nM	COc1cc(N2CCN(CC(=O)NC3CC3)C2=O)ccc1Nc1ncc(Cl)c(Nc2ccccc2S(=O)(=O)C(C)C)n1
1490 nM	170 nM	> 5000 nM	> 5000 nM	870 nM	> 5000 nM	310 nM	CCN(CC)C(=O)CN1CCN(c2ccc(Nc3ncc(Cl)c(Nc4ccccc4S(=O)(=O)C(C)C)n3)c(OC)c2)C1=O
1070 nM	150 nM	> 5000 nM	> 5000 nM	530 nM	2970 nM	490 nM	COc1cc(N2CCN(CC(=O)N3CCCCC3)C2=O)ccc1Nc1ncc(Cl)c(Nc2ccccc2S(=O)(=O)C(C)C)n1
> 5000 nM	3270 nM	> 5000 nM	> 5000 nM	1710 nM	> 5000 nM	2510 nM	COc1cc(N2CCN(CC(=O)O)C2=O)ccc1Nc1ncc(Cl)c(Nc2ccccc2S(=O)(=O)C(C)C)n1
> 5000 nM	310 nM	> 5000 nM	> 5000 nM	920 nM	> 5000 nM	690 nM	COc1cc(N2CCN(C(=O)C3CCOCC3)C2=O)ccc1Nc1ncc(Cl)c(Nc2ccccc2S(=O)(=O)C(C)C)n1
2440 nM	110 nM	> 5000 nM	4590 nM	120 nM	160 nM	390 nM	COc1cc(N2CCN(CC(=O)N3CCN(CCO)CC3)C2=O)ccc1Nc1ncc(Cl)c(Nc2ccccc2S(=O)(=O)C(C)C)n1
1020 nM	130 nM	> 5000 nM	2970 nM	320 nM	4280 nM	110 nM	COc1cc(N2CCN(CC(=O)N3CC(O)C3)C2=O)ccc1Nc1ncc(Cl)c(Nc2ccccc2S(=O)(=O)C(C)C)n1
2370 nM	250 nM	> 5000 nM	> 5000 nM	1130 nM	2780 nM	470 nM	COc1cc(N2CCN(CCC#N)C2=O)ccc1Nc1ncc(Cl)c(Nc2ccccc2S(=O)(=O)C(C)C)n1
970 nM	760 nM	> 5000 nM	> 5000 nM	570 nM	2060 nM	210 nM	COc1cc(N2CCN(CC(=O)N3CCOCC3)C2=O)ccc1Nc1ncc(Cl)c(Nc2ccccc2S(=O)(=O)C(C)C)n1
1150 nM	570 nM	> 5000 nM	3110 nM	870 nM	3510 nM	410 nM	COCCN1CCN(c2ccc(Nc3ncc(Cl)c(Nc4ccccc4S(=O)(=O)C(C)C)n3)c(OC)c2)C1=O
2360 nM	280 nM	> 5000 nM	> 5000 nM	350 nM	> 5000 nM	870 nM	COc1cc(N2CCN(CC(=O)N3CCC(C)CC3)C2=O)ccc1Nc1ncc(Cl)c(Nc2ccccc2S(=O)(=O)C(C)C)n1
